Source: US7989494B2, “Polymorphs of N-hydroxy-3-[4-[[[2-(2-methyl-1H-indol-3-yl)ethyl]amino]methyl]phenyl]-2E-2-propenamide” (Novartis AG, priority 2006, dated 2011)
Structures can show the parent of a compound that is named as a salt.

What was measured:
Format in all cases: physicochemical
[1] = Solubility in organic solvents
[2] = Equilibration in solvents and aqueous media, solid form by XRPD
[3] = Aqueous solubility; conditions: water
[4] = Intrinsic dissolution
[5] = Hygroscopicity (descriptive)
[6] = Sorption-desorption isotherms, VTI humidity balance; conditions: for Sorption: 25° C., first sorption cycle; for Desorption: in % (unit assumed)
Protocol: Sorption-desorption isotherms were recorded by a VTI humidity balance. The salts of (N-hydroxy-3-[4-[[[2-(2-methyl-1H-indol-3-yl)ethyl]amino]methyl]phenyl]-2E-2-propenamide were first subjected to a drying step (25° C., r.h. below 2%, 2 hours) and then to a sorption-desorption-sorption sequence, with each RH % step retained for 3 hours. The free base was kept below 2% r.h. for several hours, and thus was completely dehydrated after the drying step. Only the data of the first sorption cycle are given in the table, since, in all cases, the two sorption cycles were very similar.

Compound	solubility in methanol and ethanol [1]	solubility in other common / remaining organic solvents [1]	XRPD form after equilibration ([2]; 2-Propanol)	XRPD form after equilibration ([2]; Acetone)	XRPD form after equilibration ([2]; Ethanol)	XRPD form after equilibration ([2]; Ethyl Acetate)	XRPD form after equilibration ([2]; pH = 6.8 buffer (phosphate))	XRPD form after equilibration ([2]; water)	aqueous solubility [3]	intrinsic dissolution [4]	hygroscopicity [5]	Sorption ([6]; Sample RH % 1.5)	Sorption ([6]; Sample RH % 5)	Desorption ([6]; Sample RH % 5)	Sorption ([6]; Sample RH % 25)	Desorption ([6]; Sample RH % 25)	Sorption ([6]; Sample RH % 50)	Desorption ([6]; Sample RH % 50)	Sorption ([6]; Sample RH % 75)	Desorption ([6]; Sample RH % 75)	other results
Cc1[nH]c2ccccc2c1CCNCc1ccc(/C=C/C(=O)NO)cc1 [Form A of the maleate salt, N-hydroxy-3-[4-[[[2-(2-methyl-1H-indol-3-yl)ethyl]amino]methyl]phenyl]-2E-2-propenamide]	high solubility	considerable solubility	No change	No change	No change	No change	No change	No change	2600 µg/mL	good	nonhygroscopic	0%	0.02%	−0.02	0.07%	0.05	0.12%	0.10	0.16%	0.17	XRPD form after equilibration ([2]; Methanol): No change; Sorption ([6]; Sample RH % 85): 0.17%; Desorption ([6]; Sample RH % 85): 0.19; Sorption ([6]; Sample RH % 95): 0.21%; Desorption ([6]; Sample RH % 95): 0.21
Cc1[nH]c2ccccc2c1CCNCc1ccc(/C=C/C(=O)NO)cc1 [Form A of the mesylate salt, N-hydroxy-3-[4-[[[2-(2-methyl-1H-indol-3-yl)ethyl]amino]methyl]phenyl]-2E-2-propenamide]	high solubility	appreciable solubility	No change	No change	No change	No change	free base	converts to form B	12900 µg/mL	high	very slightly hygroscopic	0%	0.03%	−0.03	0.1%	0.07	0.16%	0.16	0.23%	0.25	XRPD form after equilibration ([2]; 0.1 N HCl): hydrochloride salt; XRPD form after equilibration ([2]; Water, listed as Mesylate): Changed to new; moisture at 85% r.h. ([6]; 85% r.h.): less than 0.35%; Sorption ([6]; Sample RH % 85): 0.31%; Desorption ([6]; Sample RH % 85): 0.33; Sorption ([6]; Sample RH % 95): 0.82%; Desorption ([6]; Sample RH % 95): 0.82
